One experiment has as its target human PI3Kα (Homo sapiens (Human), UniProt P42336). Kind of experiment: Human PI3Kα activity test (luciferin/luciferase ATP consumption, KinaseGlo). The format is biochemical. (Kinase-Glo measures the ATP left after a reaction by luminescence.)
For experiment [1], the system named is Plasmodium falciparum (strain NF54). In words: Antimalarial activity test: growth of Plasmodium falciparum in infected human erythrocytes, 3H-hypoxanthine incorporation. The format is cell-based. The conditions noted are these: Plasmodium falciparum, Erythrocyte, strain NF54 sensitive to chloroquine, 72 h total incubation. The gist of the method:
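Chloroquine-sensitive NF54 parasites in human erythrocytes (1.25% hematocrit, 0.15% parasitemia) were grown in hypoxanthine-free RPMI 1640 with HEPES and Albumax II, with compound in twofold serial dilution, at 37 °C under 93% N2/4% CO2/3% O2. After 48 h, 3H-hypoxanthine (0.5 μCi) was added for 24 h. Scintillation counts versus drug-free control gave IC50.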

The mark [2] stands for this setting: PI3Kα (p110α/p85α), 50 μM PIP2, 2 μM ATP, 90 minutes, read-out: IC50 Human PI3Kα.

Where two headings read alike, the source gives them in different places.

human PI3Kα, sequence (P42336 whole entry): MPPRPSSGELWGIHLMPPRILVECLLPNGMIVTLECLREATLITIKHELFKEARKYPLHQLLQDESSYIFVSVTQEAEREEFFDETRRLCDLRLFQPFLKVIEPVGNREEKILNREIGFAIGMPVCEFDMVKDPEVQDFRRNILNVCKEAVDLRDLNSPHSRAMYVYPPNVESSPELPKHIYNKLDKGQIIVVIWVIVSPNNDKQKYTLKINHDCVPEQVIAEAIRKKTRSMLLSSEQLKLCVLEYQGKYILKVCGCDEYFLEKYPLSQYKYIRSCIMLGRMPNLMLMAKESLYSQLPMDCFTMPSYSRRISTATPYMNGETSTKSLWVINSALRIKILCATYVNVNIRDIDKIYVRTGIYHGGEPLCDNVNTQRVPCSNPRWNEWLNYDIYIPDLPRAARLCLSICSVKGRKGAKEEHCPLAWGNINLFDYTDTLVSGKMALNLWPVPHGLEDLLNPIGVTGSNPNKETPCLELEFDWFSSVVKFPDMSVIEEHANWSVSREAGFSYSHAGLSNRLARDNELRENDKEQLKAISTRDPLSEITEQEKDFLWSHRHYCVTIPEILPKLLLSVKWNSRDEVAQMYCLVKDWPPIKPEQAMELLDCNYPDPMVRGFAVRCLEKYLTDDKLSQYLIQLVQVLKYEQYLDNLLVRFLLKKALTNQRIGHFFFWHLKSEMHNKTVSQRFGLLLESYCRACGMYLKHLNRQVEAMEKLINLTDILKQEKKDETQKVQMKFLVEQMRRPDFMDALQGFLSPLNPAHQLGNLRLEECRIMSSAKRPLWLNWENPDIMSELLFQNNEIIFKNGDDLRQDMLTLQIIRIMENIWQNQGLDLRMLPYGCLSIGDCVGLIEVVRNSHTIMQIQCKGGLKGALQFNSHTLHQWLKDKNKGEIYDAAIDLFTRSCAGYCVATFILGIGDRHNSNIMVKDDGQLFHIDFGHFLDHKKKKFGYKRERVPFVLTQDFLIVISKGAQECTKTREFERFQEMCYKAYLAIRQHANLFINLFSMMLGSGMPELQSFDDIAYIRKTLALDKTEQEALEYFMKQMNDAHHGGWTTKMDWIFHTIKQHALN
human PI3Kα, sequence (P27986 whole entry partner): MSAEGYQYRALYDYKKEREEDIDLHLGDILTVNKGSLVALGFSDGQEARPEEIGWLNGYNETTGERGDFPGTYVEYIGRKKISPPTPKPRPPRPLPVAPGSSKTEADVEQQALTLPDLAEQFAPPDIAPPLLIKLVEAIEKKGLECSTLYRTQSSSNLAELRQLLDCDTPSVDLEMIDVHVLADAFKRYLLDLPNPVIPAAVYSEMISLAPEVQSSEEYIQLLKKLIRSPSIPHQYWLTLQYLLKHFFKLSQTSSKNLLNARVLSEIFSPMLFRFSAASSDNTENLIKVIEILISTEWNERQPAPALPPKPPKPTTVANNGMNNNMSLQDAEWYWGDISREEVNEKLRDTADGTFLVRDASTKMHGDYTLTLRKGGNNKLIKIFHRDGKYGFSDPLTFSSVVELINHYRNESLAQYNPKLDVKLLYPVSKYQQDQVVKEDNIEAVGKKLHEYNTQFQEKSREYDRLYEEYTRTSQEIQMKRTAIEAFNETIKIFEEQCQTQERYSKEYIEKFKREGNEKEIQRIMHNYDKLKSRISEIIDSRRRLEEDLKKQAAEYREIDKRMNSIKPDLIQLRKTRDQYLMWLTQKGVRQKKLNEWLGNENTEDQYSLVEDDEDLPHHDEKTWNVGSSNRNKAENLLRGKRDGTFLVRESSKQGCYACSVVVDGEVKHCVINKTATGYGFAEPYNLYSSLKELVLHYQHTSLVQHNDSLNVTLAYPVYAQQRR
Experimental for human PI3Kα: The test uses a luciferin/luciferase system to measure the concentration of ATP and its consumption during the enzymatic reaction.
After 90 minutes, the reaction is quenched by adding 20 μl/well of KinaseGlo reagent (Promega V6713). After 10 minutes in the dark, the luminescence is read using a PHERAStar microplate reader (reading at 0.8 sec/well).

Regarding `O=C(CN1c2nc(N3C[C@@H]4C[C@H]3CO4)cc(=O)n2CC[C@H]1C(F)(F)F)C1CCOCC1` [Compound 62, (8S)-2-(1S,4S)-2-Oxa-5-azabicyclo[2.2.1]hept-5-yl-9-[2-oxo-2-(tetrahydropyran-4-yl)ethyl]-8-trifluoromethyl-6,7,8,9-tetrahydropyrimido[1,2-a]pyrimidin-4-one], the IC50 on human PI3Kα (setting [2]) was above 10000 nM; in experiment [1], 11 nM.

With `O=C(CN1c2nc(N3C[C@@H]4C[C@H]3CO4)cc(=O)n2CC[C@H]1C(F)(F)F)c1ccc(OCCF)nc1` [Compound 63, (S)-9-{2-[6-(2-fluoroethoxy)pyrid-3-yl]-2-oxoethyl}-2-(1S,4S)-2-oxa-5-azabicyclo[2.2.1]hept-5-yl-8-trifluoromethyl-6,7,8,9-tetrahydropyrimido[1,2-a]pyrimidin-4-one], the values for the IC50 (at human PI3Kα (setting [2]); in experiment [1]) were above 7200 nM and 384 nM, respectively.

As to `O=C(CN1c2nc(N3C[C@@H]4C[C@H]3CO4)cc(=O)n2CC[C@H]1C(F)(F)F)c1ccc(OCCF)c(F)c1` [Compound 64, (8S)-9-{2-[3-Fluoro-4-(2-fluoroethoxyl)phenyl]-2-oxoethyl}-2-(1S,4S)-2-oxa-5-azabicyclo[2.2.1]hept-5-yl-8-trifluoromethyl-6,7,8,9-tetrahydropyrimido[1,2-a]pyrimidin-4-one], the IC50 on human PI3Kα (setting [2]) was above 10000 nM; in experiment [1], 39 nM.

As for `COc1ncccc1C(=O)CN1c2nc(N3C[C@@H]4C[C@H]3CO4)cc(=O)n2CC[C@H]1C(F)(F)F` [Compound 65, (8S)-9-[2-(2-Methoxypyrid-3-yl)-2-oxoethyl]-2-(1S,4S)-2-oxa-5-azabicyclo[2.2.1]hept-5-yl-8-trifluoromethyl-6,7,8,9-tetrahydropyrimido[1,2-a]pyrimidin-4-one], the IC50 on human PI3Kα (setting [2]) is above 10000 nM; in experiment [1] it was 21 nM.

For the compound `Cn1cncc1C(=O)CN1c2nc(N3C[C@@H]4C[C@H]3CO4)cc(=O)n2CC[C@H]1C(F)(F)F` [Compound 66, (8S)-9-[2-(3-Methyl-3H-imidazol-4-yl)-2-oxoethyl]-2-(1S,4S)-2-oxa-5-azabicyclo[2.2.1]hept-5-yl-8-trifluoromethyl-6,7,8,9-tetrahydropyrimido[1,2-a]pyrimidin-4-one], the IC50 on human PI3Kα (setting [2]) is above 10000 nM; in experiment [1], 73 nM.

With `O=C(CN1c2nc(N3C[C@@H]4C[C@H]3CO4)cc(=O)n2CC[C@H]1C(F)(F)F)C1CC1` [Compound 67, (8S)-9-(2-Cyclopropyl-2-oxoethyl)-2-(1S,4S)-2-oxa-5-azabicyclo[2.2.1]hept-5-yl-8-trifluoromethyl-6,7,8,9-tetrahydropyrimido[1,2-a]pyrimidin-4-one], the IC50 came to 4000 nM on human PI3Kα (setting [2]) and 43 nM in experiment [1].

With `O=C(CN1c2nc(N3C[C@@H]4C[C@H]3CO4)cc(=O)n2CC[C@H]1C(F)(F)F)c1ccccn1` [Compound 68, (8S)-2-(1S,4S)-2-oxa-5-azabicyclo[2.2.1]hept-5-yl-9-(2-oxo-2-pyrid-2-ylethyl)-8-trifluoromethyl-6,7,8,9-tetrahydropyrimido[1,2-a]pyrimidin-4-one], the IC50 on human PI3Kα (setting [2]) came out at 6600 nM; in experiment [1] it was 27 nM.

In the case of `Cn1nccc1C(=O)CN1c2nc(N3C[C@@H]4C[C@H]3CO4)cc(=O)n2CC[C@H]1C(F)(F)F` [Compound 69, (8S)-9-[2-(2-methyl-2H-pyrazol-3-yl)-2-oxoethyl]-2-(1S,4S)-2-oxa-5-azabicyclo[2.2.1]hept-5-yl-8-trifluoromethyl-6,7,8,9-tetrahydropyrimido[1,2-a]pyrimidin-4-one], the IC50 is above 10000 nM at human PI3Kα (setting [2]) and 96 nM in experiment [1].

In the case of `CN(C)C(=O)COc1ccc(CCN2c3nc(N4CC5CCC(C4)O5)cc(=O)n3C[C@@]2(C)C(F)(F)F)cc1` [Compound 70, N, N-dimethyl-2-(4-{2-[(S)-2-methyl-7-(8-oxa-3-azabicyclo[3.2.1]oct-3-yl)-5-oxo-2-trifluoromethyl-2,3-dihydro-5H-imidazo[1,2-a]pyrimidin-1-yl]ethyl}phenoxy)acetamide], the IC50 on human PI3Kα (setting [2]) came out at 1000 nM; in experiment [1], 12 nM.

Take `COc1cc(F)ccc1[C@H](O)CN1c2nc(N3CC4CCC(C3)O4)cc(=O)n2CC[C@H]1C(F)(F)F` [Compound 71, (8S)-9-[(S)-2-(4-fluoro-2-methoxyphenyl)-2-hydroxyethyl]-2-(8-oxa-3-azabicyclo[3.2.1]oct-3-yl)-8-trifluoromethyl-6,7,8,9-tetrahydropyrimido[1,2-a]pyrimidin-4-one]: the results for the IC50 (at human PI3Kα (setting [2]); in experiment [1]) were 810 nM and 23 nM, respectively.

For the compound `C[C@@]1(C(F)(F)F)Cn2c(nc(N3CC4CCC(C3)O4)cc2=O)N1CCc1ccc(O)cc1` [Compound 72, (S)-1-[2-(4-hydroxyphenyl)ethyl]-2-methyl-7-(8-oxa-3-azabicyclo[3.2.1]oct-3-yl)-2-trifluoromethyl-2,3-dihydro-1H-imidazo[1,2-a]pyrimidin-5-one], the IC50 on human PI3Kα (setting [2]) is 730 nM; in experiment [1] it was 37 nM.

On to `O=C(CN1c2nc(N3CC4CCC(C3)O4)cc(=O)n2CC[C@H]1C(F)(F)F)c1ccccc1` [Compound 73, (8S)-2-(8-Oxa-3-azabicyclo[3.2.1]oct-3-yl)-9-(2-oxo-2-phenylethyl)-8-trifluoromethyl-6,7,8,9-tetrahydropyrimido[1,2-a]pyrimidin-4-one], for which the IC50 at human PI3Kα (setting [2]) turned out to be 2500 nM; in experiment [1], 44 nM.

In the case of `CN(C)CCOc1ccc(CCN2c3nc(N4CC5CCC(C4)O5)cc(=O)n3C[C@@]2(C)C(F)(F)F)cc1` [Compound 74, (S)-1-{2-[4-(2-dimethylaminoethoxy)phenyl]ethyl}-2-methyl-7-(8-oxa-3-azabicyclo[3.2.1]oct-3-yl)-2-trifluoromethyl-2,3-dihydro-1H-imidazo[1,2-a]pyrimidin-5-one], the results for the IC50 (at human PI3Kα (setting [2]); in experiment [1]) were 820 nM and 68 nM, respectively.

Turning to `O=C(CN1c2nc(N3CC4CCC(C3)O4)cc(=O)n2CC[C@H]1C(F)(F)F)c1ccncc1` [Compound 75, (8S)-2-(8-oxa-3-azabicyclo[3.2.1]oct-3-yl)-9-(2-oxo-2-pyrid-4-ylethyl)-8-trifluoromethyl-6,7,8,9-tetrahydropyrimido[1,2-a]pyrimidin-4-one], the IC50 at human PI3Kα (setting [2]) was at least 10000 nM; in experiment [1] it was 80 nM.

Turning to `COc1ccc(CCN2c3nc(N4CC5CCC(C4)O5)cc(=O)n3C[C@@]2(C)C(F)(F)F)cc1` [Compound 76, (S)-1-[2-(4-Methoxyphenyl)ethyl]-2-methyl-7-(8-oxa-3-azabicyclo[3.2.1]oct-3-yl)-2-trifluoromethyl-2,3-dihydro-1H-imidazo[1,2-a]pyrimidin-5-one], the values for the IC50 (at human PI3Kα (setting [2]); in experiment [1]) were 950 nM and 93 nM, respectively.

For `C[C@@]1(C(F)(F)F)Cn2c(nc(N3CC4CCC(C3)O4)cc2=O)N1CCCc1ccccc1` [Compound 77, (S)-2-Methyl-7-(8-oxa-3-azabicyclo[3.2.1]oct-3-yl)-1-(3-phenylpropyl)-2-trifluoromethyl-2,3-dihydro-1H-imidazo[1,2-a]pyrimidin-5-one], the IC50 was 820 nM on human PI3Kα (setting [2]) and 160 nM in experiment [1].

`CN(C)CCCOc1ccc(CCN2c3nc(N4CC5CCC(C4)O5)cc(=O)n3C[C@@]2(C)C(F)(F)F)cc1` [Compound 78, (S)-1-{2-[4-(3-Dimethylaminopropoxyl)phenyl]ethyl}-2-methyl-7-(8-oxa-3-azabicyclo[3.2.1]oct-3-yl)-2-trifluoromethyl-2,3-dihydro-1H-imidazo[1,2-a]pyrimidin-5-one]: the IC50 at human PI3Kα (setting [2]) was found to be 250 nM; in experiment [1], 360 nM.

For the compound `C[C@@]1(C(F)(F)F)Cn2c(nc(N3CC4CCC(C3)O4)cc2=O)N1C[C@@H](O)c1ccccc1` [Compound 79, (2S)-1-((S)-2-Hydroxy-2-phenylethyl)-2-methyl-7-(8-oxa-3-azabicyclo[3.2.1]oct-3-yl)-2-trifluoromethyl-2,3-dihydro-1H-imidazo[1,2-a]pyrimidin-5-one], the IC50 was 1600 nM on human PI3Kα (setting [2]) and 640 nM in experiment [1].

For `O=c1cc(N2CC3CCC(C2)O3)nc2n1CC[C@@H](C(F)(F)F)N2C[C@@H](O)c1cc2ccccc2s1` [Compound 82, (8S)-9-((R)-2-Benzo[b]thiophen-2-yl-2-hydroxyethyl)-2-(8-oxa-3-azabicyclo[3.2.1]oct-3-yl)-8-trifluoromethyl-6,7,8,9-tetrahydropyrimido[1,2-a]pyrimidin-4-one], the IC50 at human PI3Kα (setting [2]) is 340 nM; in experiment [1], 9 nM.

For the compound `O=c1cc(N2CC3CCC(C2)O3)nc2n1CC[C@@H](C(F)(F)F)N2CCc1ccc(O)cc1` [Compound 83, (8S)-9-[2-(4-Hydroxyphenyl)ethyl]-2-(8-oxa-3-azabicyclo[3.2.1]oct-3-yl)-8-trifluoromethyl-6,7,8,9-tetrahydropyrimido[1,2-a]pyrimidin-4-one], the figures for the IC50 (on human PI3Kα (setting [2]); in experiment [1]) were 190 nM and 10 nM, respectively.

`O=c1cc(N2CC3CCC(C2)O3)nc2n1CC[C@@H](C(F)(F)F)N2CCCc1ccccc1` [Compound 84, (8S)-2-(8-oxa-3-azabicyclo[3.2.1]oct-3-yl)-9-(3-phenylpropyl)-8-trifluoromethyl-6,7,8,9-tetrahydropyrimido[1,2-a]pyrimidin-4-one]: the IC50 was determined as 200 nM on human PI3Kα (setting [2]) and 110 nM in experiment [1].

As to `O=C(CN1c2nc(N3C4CCC3COC4)cc(=O)n2CC[C@H]1C(F)(F)F)c1cccnc1` [Compound 85, (8S)-2-(3-Oxa-8-azabicyclo[3.2.1]oct-8-yl)-9-(2-oxo-2-pyrid-3-ylethyl)-8-trifluoromethyl-6,7,8,9-tetrahydropyrimido[1,2-a]pyrimidin-4-one], the IC50 against human PI3Kα is above 10000 nM; in experiment [1], 150 nM.

Consider `O=c1cc(N2CC3CCC(C2)O3)nc2n1CC[C@@H](C(F)(F)F)N2Cc1ccn(C(F)F)n1` [Compound 86, (8S)-9-(1-Difluoromethyl-1H-pyrazol-3-ylmethyl)-2-(8-oxa-3-azabicyclo[3.2.1]oct-3-yl)-8-trifluoromethyl-6,7,8,9-tetrahydropyrimido[1,2-a]pyrimidin-4-one], for which the IC50 was 7300 nM at human PI3Kα (setting [2]) and 170 nM in experiment [1].

In general, IC50 refers to the midpoint of a concentration-inhibition curve.

The values above are taken from patent US9321790B2, “Pyrimidinone derivatives as antimalarial agents” (SANOFI, priority 2012, dated 2016).
